Source: patent US20250332173A1, “COMPOUNDS AND METHODS FOR MODULATING NUCLEIC ACID SPLICING” (REMIX THERAPEUTICS INC., priority 2021, published 2025)

Key:
[1] = system: K562 (human chronic myelogenous leukemia) cells; test: Cell Titer Glo 2.0 cell viability assay; format: cell-based; conditions: Homo sapiens, K562, 72 h, K562 cells, 72 hours, Cell Titer Glo 2.0; read-out: K562 GI50
[2] = system: Target C; test: HiBiT protein abundance assay, Target C (Promega Nano-Glo HiBiT Lytic Detection System, knock-in K562 cell line); format: cell-based, human; conditions: Homo sapiens, K562, 24 h, HiBiT K562 cell line, 24 hours, top dose 10 μM; read-out: Effect on protein abundance, Target C (IC50 category)
Description: (§1) • Promega Nano-Glo HiBiT Lytic Detection System (cat #N3030) • Corning 384-well TC-treated microplates (cat #3570) • Synthego Engineered Cells Knock-In Clones
(§2) Cells were maintained in IMDM with 10% FBS. Before the assay, cells were diluted with […] growth media (IMDM+[…] media) and were seeded in a 384-well plate at a density of 10,000 cells/well (for each cell line listed in Table 5). Each compound was prepared as a 10-point 3-fold serial dilution in DMSO with the top dose at a final concentration of 10 μM in the well. Unmodified K562 cells were added at the previously specified density with DMSO to serve as an assay baseline and positive control (PC) and DMSO only with the respective modified cell lines was added to the negative control (NC) columns. Final DMSO concentration was kept at or below 0.25%. Treated cell plates were placed in an incubator at 37° C. with […] for 24 hours. After 24 hours, 25 μL of Complete HiBit Lytic reagent was added to each well at room temperature (e.g. one plate requiring 10 mL Lytic Buffer, 100 μL LgBiT Protein, 200 μL Lytic Substrate), shaken for 5 minutes at 600 RPM, then left to sit for 10 minutes for signal to stabilize before reading on a Spark Cyto plate reader (Tecan) with a 500 ms measurement time.
(§3) To determine compound effects on protein abundance of each target in Table 5, the percent response for each respective cell line was calculated at each compound concentration as follows:
(§4) For the normalized response at each concentration, a four-parameter logistical regression was fit to the data and the response was interpolated at the […] to determine a concentration for protein abundance at […] the untreated control.

[3] = system: MYB; test: HiBiT protein abundance assay, MYB HiBiT K562 cell line; format: cell-based, human; conditions: HiBiT K562 cell line, 24 hours, top dose 10 μM; read-out: Effect on protein abundance, MYB (IC50 category)
Description: (§5) Compounds described herein were used to screen for effects on quantitative protein abundance using a HiBit assay system (Promega). Quantitative protein abundance was determined by measuring the protein levels of HiBit-tagged protein targets expressed in cell culture via luminescence using the Nano-Glo HiBiT Lytic Detection System, which uses a split complementation assay format to reconstitute NanoBiT enzyme to generate a luminescent signal. A protein abundance assay was developed such that endogenous protein targets could be modified with the HiBiT peptide tag and their abundance could be assessed after compound treatment. Briefly, K562 cell lines containing a HiBiT-modification were treated with various compounds described herein (e.g., compounds of Formulas (I), (II), (III), (IV), (V), (VI), (VII), (VIII), or (IX)). After treatment for 24 hours, the protein abundance of a specific target was determined by measuring luminescence.
as §1, §2, §3, §4

[4] = system: HTT; test: HiBiT protein abundance assay, HTT HiBiT K562 cell line; format: cell-based, human; conditions: HiBiT K562 cell line, 24 hours, top dose 10 μM; read-out: Effect on protein abundance, HTT (IC50 category)
Description: as §5, §1, §2, §3, §4

Row | GI50 [1] | IC50 [2] | IC50 [3] | IC50 [4] | SMILES
1 | 1 to 10 µM | 1 to 10 µM | 1 to 10 µM | > 10 µM | Cc1cn2cc(-c3cc(O)c4c(=O)n(C5CCNC5)cnc4c3)cc(C#N)c2n1 (stereo not drawn) [Compound 507, 6-[5-hydroxy-4-oxo-3-(pyrrolidin-3-yl)quinazolin-7-yl]-2-methylimidazo[1,2-a]pyridine-8-carbonitrile; trifluoroacetic acid]
2 | > 10 µM | > 10 µM | 1 to 10 µM | > 10 µM | Cc1nc2c(o1)CN(c1cc(F)c3c(=O)n(C4CCNCC4)cnc3c1)CC2 [Compound 508, 5-fluoro-7-{2-methyl-4H,6H,7H-[1,3]oxazolo[5,4-c]pyridin-5-yl}-3-(piperidin-4-yl)quinazolin-4-one; trifluoroacetic acid]
3 | 0.1 to 1 µM | 0.1 to 1 µM | 0.1 to 1 µM | 0.1 to 1 µM | Cn1cc2nc(-c3cc(O)c4c(=O)n(C5CCNC6(CC6)C5)ncc4c3)ccc2n1 (stereo not drawn) [Compound 562]
4 | 0.1 to 1 µM | 0.1 to 1 µM | 0.1 to 1 µM | 0.1 to 1 µM | Cn1cc2nc(-c3cc(F)c4c(=O)n(C5CCNC6(CC6)C5)ncc4c3)ccc2n1 (stereo not drawn) [Compound 563]
5 | 0.1 to 1 µM | 0.1 to 1 µM | 0.1 to 1 µM | 0.1 to 1 µM | Cc1nc2c(C)cc(-c3cc(O)c4c(=O)n(C5CCNC6(CC6)C5)ncc4c3)cc2o1 (stereo not drawn) [Compound 564]
6 | 0.1 to 1 µM | < 0.1 µM | < 0.1 µM | < 0.1 µM | Cc1cn2nc(-c3cc(F)c4c(=O)n(C5CCN(C)C6(CC6)C5)ncc4c3)cc(C)c2n1 (stereo not drawn) [Compound 565]
7 | 0.1 to 1 µM | 0.1 to 1 µM | 0.1 to 1 µM | 0.1 to 1 µM | Cc1cn2nc(-c3cc(N)c4c(=O)n(C5CCNCC5)ncc4c3)cc(C)c2n1 [Compound 566]
8 | 1 to 10 µM | 1 to 10 µM | 0.1 to 1 µM | 1 to 10 µM | Cc1cn2nc(-c3ccc4c(=O)c(C5CCNCC5)cn(C)c4c3)cc(C)c2n1 [Compound 590]
9 | 1 to 10 µM | > 10 µM | 1 to 10 µM | > 10 µM | Cc1cn2cc(-c3ccc4c(=O)c(C5CCNCC5)cn(C)c4c3)nc(C)c2n1 [Compound 591]
10 | 0.1 to 1 µM | 0.1 to 1 µM | 0.1 to 1 µM | 0.1 to 1 µM | Cc1cn2cc(-c3ncc4c(=O)n(C5CCNCC5)ccc4n3)cc(F)c2n1 [Compound 1213, 2-(8-fluoro-2-methylimidazo[1,2-a]pyridin-6-yl)-6-(piperidin-4-yl)pyrido[4,3-d]pyrimidin-5(6H)-one]
11 | > 10 µM | > 10 µM | > 10 µM | > 10 µM | COc1c(-c2cc3ccn(C4CCNCC4)c(=O)c3cn2)cc2cn(C)nc2c1C [Compound 1218]
12 | < 0.1 µM | 0.1 to 1 µM | < 0.1 µM | < 0.1 µM | Cc1c(O)c(-c2ncc3c(=O)n(C4CCNCC4)ccc3n2)cc2cn(C)nc12 [Compound 1224]
